PubChem BioAssay (NCI)
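Cultured in 96-well plates, cells were exposed to test compound for 48 hours across five concentrations. TGI: concentration producing complete growth inhibition.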

Tests used:
Assay in all cases: NCI-60 cell line screen, 48 h
786-0 renal = test system: 786-0 renal
A498 renal = test system: A498 renal
A549 NSCLC = test system: A549 NSCLC
ACHN renal = test system: ACHN renal
BT-549 breast = test system: BT-549 breast
CAKI-1 renal = test system: CAKI-1 renal
CCRF-CEM leukemia = test system: CCRF-CEM leukemia
COLO 205 colon = test system: COLO 205 colon
DU-145 prostate = test system: DU-145 prostate
EKVX NSCLC = test system: EKVX NSCLC
HCC-2998 colon = test system: HCC-2998 colon
HCT-116 colon = test system: HCT-116 colon
HCT-15 colon = test system: HCT-15 colon
HL-60(TB) leukemia = test system: HL-60(TB) leukemia
HOP-62 NSCLC = test system: HOP-62 NSCLC
HOP-92 NSCLC = test system: HOP-92 NSCLC
HS 578T breast = test system: HS 578T breast
HT29 colon = test system: HT29 colon
IGROV1 ovarian = test system: IGROV1 ovarian
K-562 leukemia = test system: K-562 leukemia
KM12 colon = test system: KM12 colon
LOX IMVI melanoma = test system: LOX IMVI melanoma
M14 melanoma = test system: M14 melanoma
MALME-3M melanoma = test system: MALME-3M melanoma
MCF7 breast = test system: MCF7 breast
MDA-MB-231 breast = test system: MDA-MB-231 breast
MDA-MB-435 = test system: MDA-MB-435
MDA-N = test system: MDA-N
MOLT-4 leukemia = test system: MOLT-4 leukemia
NCI-H226 lung = test system: NCI-H226 lung
NCI-H23 lung = test system: NCI-H23 lung
NCI-H460 lung = test system: NCI-H460 lung
NCI-H522 lung = test system: NCI-H522 lung
NCI/ADR-RES ovarian = test system: NCI/ADR-RES ovarian
OVCAR-4 ovarian = test system: OVCAR-4 ovarian
OVCAR-5 ovarian = test system: OVCAR-5 ovarian
OVCAR-8 ovarian = test system: OVCAR-8 ovarian
PC-3 prostate = test system: PC-3 prostate
RPMI-8226 leukemia = test system: RPMI-8226 leukemia
RXF 393 renal = test system: RXF 393 renal
SF-268 CNS = test system: SF-268 CNS
SF-295 CNS = test system: SF-295 CNS
SK-MEL-2 melanoma = test system: SK-MEL-2 melanoma
SK-MEL-28 melanoma = test system: SK-MEL-28 melanoma
SK-MEL-5 melanoma = test system: SK-MEL-5 melanoma
SK-OV-3 ovarian = test system: SK-OV-3 ovarian
SN12C renal = test system: SN12C renal
SNB-19 CNS = test system: SNB-19 CNS
SR leukemia = test system: SR leukemia
SW-620 colon = test system: SW-620 colon
T-47D breast = test system: T-47D breast
TK-10 renal = test system: TK-10 renal
U251 CNS = test system: U251 CNS
UACC-257 melanoma = test system: UACC-257 melanoma
UACC-62 melanoma = test system: UACC-62 melanoma
UO-31 renal = test system: UO-31 renal
OVCAR-3 ovarian = test system: OVCAR-3 ovarian
SF-539 CNS = test system: SF-539 CNS
SNB-75 CNS = test system: SNB-75 CNS

CCC1=NC(N/N=C/c2ccco2)=N/C1=C\c1ccccc1O
TGI (786-0 renal): > 100 µM | TGI (A498 renal): > 100 µM | TGI (A549 NSCLC): > 100 µM | TGI (ACHN renal): > 100 µM | TGI (BT-549 breast): > 100 µM | TGI (CAKI-1 renal): > 100 µM | TGI (CCRF-CEM leukemia): 70.4 µM | TGI (COLO 205 colon): > 100 µM | TGI (DU-145 prostate): > 100 µM | TGI (EKVX NSCLC): > 100 µM | TGI (HCC-2998 colon): 89.8 µM | TGI (HCT-116 colon): 56.8 µM | TGI (HCT-15 colon): 42.7 µM | TGI (HL-60(TB) leukemia): 60.6 µM | TGI (HOP-62 NSCLC): > 100 µM | TGI (HOP-92 NSCLC): > 100 µM | TGI (HS 578T breast): > 100 µM | TGI (HT29 colon): > 100 µM | TGI (IGROV1 ovarian): 93.1 µM | TGI (K-562 leukemia): > 100 µM | TGI (KM12 colon): > 100 µM | TGI (LOX IMVI melanoma): > 100 µM | TGI (M14 melanoma): > 100 µM | TGI (MALME-3M melanoma): 98.9 µM | TGI (MCF7 breast): > 100 µM | TGI (MDA-MB-231 breast): > 100 µM | TGI (MDA-MB-435): > 100 µM | TGI (MDA-N): > 100 µM | TGI (MOLT-4 leukemia): > 100 µM | TGI (NCI-H226 lung): > 100 µM | TGI (NCI-H23 lung): > 100 µM | TGI (NCI-H460 lung): 73.6 µM | TGI (NCI-H522 lung): 49.3 µM | TGI (NCI/ADR-RES ovarian): > 100 µM | TGI (OVCAR-4 ovarian): 27.8 µM | TGI (OVCAR-5 ovarian): > 100 µM | TGI (OVCAR-8 ovarian): > 100 µM | TGI (PC-3 prostate): > 100 µM | TGI (RPMI-8226 leukemia): > 100 µM | TGI (RXF 393 renal): > 100 µM | TGI (SF-268 CNS): > 100 µM | TGI (SF-295 CNS): > 100 µM | TGI (SK-MEL-2 melanoma): 89.4 µM | TGI (SK-MEL-28 melanoma): > 100 µM | TGI (SK-MEL-5 melanoma): > 100 µM | TGI (SK-OV-3 ovarian): > 100 µM | TGI (SN12C renal): > 100 µM | TGI (SNB-19 CNS): > 100 µM | TGI (SR leukemia): > 100 µM | TGI (SW-620 colon): > 100 µM | TGI (T-47D breast): > 100 µM | TGI (TK-10 renal): > 100 µM | TGI (U251 CNS): > 100 µM | TGI (UACC-257 melanoma): > 100 µM | TGI (UACC-62 melanoma): 53.6 µM | TGI (UO-31 renal): > 100 µM

O=C(Nc1nnc(-c2ccccc2)o1)C(SC(=S)N1CCCCC1)c1ccccc1 (stereo unspecified)
TGI (786-0 renal): 87.5 µM | TGI (A498 renal): 73.9 µM | TGI (A549 NSCLC): 49.5 µM | TGI (ACHN renal): 75.7 µM | TGI (BT-549 breast): 39.3 µM | TGI (CAKI-1 renal): 77.8 µM | TGI (CCRF-CEM leukemia): 14.1 µM | TGI (COLO 205 colon): > 100 µM | TGI (DU-145 prostate): 71.6 µM | TGI (EKVX NSCLC): 64.2 µM | TGI (HCT-116 colon): 32.1 µM | TGI (HCT-15 colon): 29.1 µM | TGI (HL-60(TB) leukemia): 8.38 µM | TGI (HOP-62 NSCLC): 92.1 µM | TGI (HS 578T breast): > 100 µM | TGI (HT29 colon): 70 µM | TGI (IGROV1 ovarian): > 100 µM | TGI (K-562 leukemia): > 100 µM | TGI (KM12 colon): > 100 µM | TGI (LOX IMVI melanoma): 18 µM | TGI (M14 melanoma): 27.4 µM | TGI (MALME-3M melanoma): > 100 µM | TGI (MCF7 breast): > 100 µM | TGI (MDA-MB-231 breast): > 100 µM | TGI (MDA-MB-435): 73.3 µM | TGI (MDA-N): 69.9 µM | TGI (MOLT-4 leukemia): > 100 µM | TGI (NCI-H226 lung): 93.5 µM | TGI (NCI-H23 lung): 30.7 µM | TGI (NCI-H460 lung): 34.6 µM | TGI (NCI-H522 lung): 97.6 µM | TGI (NCI/ADR-RES ovarian): 33.2 µM | TGI (OVCAR-3 ovarian): 43.4 µM | TGI (OVCAR-4 ovarian): > 100 µM | TGI (OVCAR-5 ovarian): 82.9 µM | TGI (OVCAR-8 ovarian): > 100 µM | TGI (PC-3 prostate): 96.2 µM | TGI (RPMI-8226 leukemia): > 100 µM | TGI (RXF 393 renal): > 100 µM | TGI (SF-295 CNS): > 100 µM | TGI (SF-539 CNS): 71.3 µM | TGI (SK-MEL-2 melanoma): 51.1 µM | TGI (SK-MEL-28 melanoma): > 100 µM | TGI (SK-MEL-5 melanoma): 28.2 µM | TGI (SK-OV-3 ovarian): > 100 µM | TGI (SN12C renal): 42 µM | TGI (SNB-19 CNS): > 100 µM | TGI (SNB-75 CNS): > 100 µM | TGI (SR leukemia): > 100 µM | TGI (SW-620 colon): > 100 µM | TGI (T-47D breast): > 100 µM | TGI (TK-10 renal): > 100 µM | TGI (U251 CNS): 87.2 µM | TGI (UACC-257 melanoma): > 100 µM | TGI (UO-31 renal): 26.9 µM
